Results reported in patent US20260315492A1, “5,6-FUSED BICYCLIC AMIDES AND COMPOSITIONS FOR USE AS 15-PROSTAGLANDIN DEHYDROGENASE MODULATORS” (AMGEN INC., priority 2023, published 2026).

Target: T1, human recombinant 15-PGDH (Homo sapiens, UniProt P15428)
T1 sequence (P15428 1-266): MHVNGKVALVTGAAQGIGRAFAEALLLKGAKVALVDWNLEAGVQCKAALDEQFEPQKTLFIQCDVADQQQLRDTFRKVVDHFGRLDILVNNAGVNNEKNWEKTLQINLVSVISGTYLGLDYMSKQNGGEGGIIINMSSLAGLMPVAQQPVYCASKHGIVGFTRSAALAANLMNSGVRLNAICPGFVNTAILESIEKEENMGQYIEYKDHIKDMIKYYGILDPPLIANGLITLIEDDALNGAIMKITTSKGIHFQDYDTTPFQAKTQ
Test: Inhibition of recombinant 15-PGDH enzymatic activity (NADH quantification after addition of PGE2 and NAD+)
Assay type: biochemical
Conditions: not given
Method: The compound dose-response of its inhibition of 15-PGDH activity was determined in human recombinant 15-PGDH enzymatical assays. These assays measured 15-PGDH enzymatic activity by quantifying the amount of NADH produced during a 60-minute reaction initiated by the addition of PGE2 and NAD+. Under the conditions of these experiments, the increase of NADH signal upon oxidation of PGE2 and reduction of NAD+ was linearly proportional to 15-PGDH enzymatic activity. The recombinant human, mouse, rat and dog 15-PGDH enzymatic assays were performed in a 25 μL volume of reaction buffer containing 50 mM Tris, pH 7.5, 0.01% Tween-20 and 100 μM DTT in a 384-well microtiter plate. In concentration-response experiments with tested compounds, 22 concentrations from 2-fold serial dilutions in DMSO were pre-incubated with 15-PGDH for 15 minutes at room temperature. Then, PGE2 and ß-NAD+ were added to initiate the 15-PGDH reaction. After 60 minutes at room temperature, the reaction was quenched and NADH signal was measured using a microtiter plate reader.
The following data (Table 11-1) provides the IC50 of each compound for inhibiting enzymatic activity of recombinant 15-PGDH in the assay described above.

Row | SMILES | IC50 [nM]
1 | Cn1cc2cc(-c3cc(C4CCC4)c4c(N)c(C(=O)N5CCC(F)(F)CC5)sc4n3)cnc2n1 [Compound B4, (3-amino-4-cyclobutyl-6-(2-methyl-2H-pyrazolo[3,4-b]pyridin-5-yl)thieno[2,3-b]pyridin-2-yl)(4,4-difluoro-1-piperidinyl)methanone] | 0.387

Same assay, conditions: recombinant 15-PGDH; 15 min pre-incubation, 60-minute reaction, room temperature, pH 7.5; PGE2 and NAD+; read-out: PGDH-Lumi IC50

Row | SMILES | IC50 [nM]
2 | C[C@@H]1COCCN1C(=O)c1cc2ccc(-c3ccc(=O)[nH]c3)nc2s1 [Compound B48R, 5-(2-(((3R)-3-methyl-4-morpholinyl)carbonyl)thieno[2,3-b]pyridin-6-yl)-2(1H)-pyridinone] | 1030
3 | Cn1cnc2ncc(-c3ccc4cc(C(=O)N5CCOCC5)sc4n3)cc21 [Compound B50, (6-(1-methyl-1H-imidazo[4,5-b]pyridin-6-yl)thieno[2,3-b]pyridin-2-yl)(4-morpholinyl)methanone] | 2.64
4 | Cn1cc2cc(-c3ccc4sc(C(=O)N5CCOCC5)cc4n3)cnc2n1 [Compound C44, (5-(2-methyl-2H-pyrazolo[3,4-b]pyridin-5-yl)thieno[3,2-b]pyridin-2-yl)(4-morpholinyl)methanone] | 4.51
5 | Cn1cc2cc(-c3ccc4cc(C(=O)N5CCOCC56CCC6)sc4n3)cnc2n1 [Compound B59, (6-(2-methyl-2H-pyrazolo[3,4-b]pyridin-5-yl)thieno[2,3-b]pyridin-2-yl)(8-oxa-5-azaspiro[3.5]nonan-5-yl)methanone] | 46.4
6 | Cn1cc2cc(-c3cnc4sc(C(=O)N5CCC(F)(F)CC5)cc4n3)cnc2n1 [Compound C40, (4,4-difluoro-1-piperidinyl)(2-(2-methyl-2H-pyrazolo[3,4-b]pyridin-5-yl)thieno[2,3-b]pyrazin-6-yl)methanone] | 0.726
7 | C[C@@H]1COCCN1C(=O)c1cc2ccc(-c3cnc4ncn(C)c4c3)nc2s1 [Compound B63R, (6-(1-methyl-1H-imidazo[4,5-b]pyridin-6-yl)thieno[2,3-b]pyridin-2-yl)((3R)-3-methyl-4-morpholinyl)methanone] | 5.17
8 | CO[C@H]1CCN(C(=O)c2sc3cc(-c4cnc5nn(C)cc5c4)ccc3c2C)C1 [Compound A4S, ((3S)-3-methoxy-1-pyrrolidinyl)(3-methyl-6-(2-methyl-2H-pyrazolo[3,4-b]pyridin-5-yl)-1-benzothiophen-2-yl)methanone] | 19.5
9 | C[C@@H]1COCCN1C(=O)c1cc2ccc(-c3cnc4c(c3)nnn4C)nc2s1 [Compound B44R, ((3R)-3-methyl-4-morpholinyl)(6-(3-methyl-3H-[1,2,3]triazolo[4,5-b]pyridin-6-yl)thieno[2,3-b]pyridin-2-yl)methanone] | 56.7
10 | O=C(c1cc2c(C3CC3)cc(-c3cnc(N4CCNCC4)nc3)nc2s1)N1CCCCC1 [Compound B22, (4-cyclopropyl-6-(2-(1-piperazinyl)-5-pyrimidinyl)thieno[2,3-b]pyridin-2-yl)(1-piperidinyl)methanone] | 3.61
11 | C[C@H]1COCCN1C(=O)c1cc2ccc(-c3cnc4nn(C)cc4c3)nc2s1 [Compound B9S, ((3S)-3-methyl-4-morpholinyl)(6-(2-methyl-2H-pyrazolo[3,4-b]pyridin-5-yl)thieno[2,3-b]pyridin-2-yl)methanone] | 5.05
12 | Cn1cnc(-c2ccc3cc(C(=O)N4CCOCC4)sc3n2)cc1=O [Compound B39, 3-methyl-6-(2-(4-morpholinylcarbonyl)thieno[2,3-b]pyridin-6-yl)-4(3H)-pyrimidinone] | 128
13 | Cn1cc2cc(-c3ccc4cc(C(=O)N5CCOCC5(C)C)sc4n3)cnc2n1 [Compound B29, (3,3-dimethyl-4-morpholinyl)(6-(2-methyl-2H-pyrazolo[3,4-b]pyridin-5-yl)thieno[2,3-b]pyridin-2-yl)methanone] | 83.6
14 | CC1CC(F)(F)CCN1C(=O)c1cc2ccc(-c3cnc4nn(C)cc4c3)nc2s1 (stereo not drawn) [Compound B27] | 1.7
15 | C[C@@H]1COCCN1C(=O)c1cc2ccc(-c3ccc(=O)n(C)c3)nc2s1 [Compound B32R, 1-methyl-5-(2-(((3R)-3-methyl-4-morpholinyl)carbonyl)thieno[2,3-b]pyridin-6-yl)-2(1H)-pyridinone] | 1350
16 | Cc1c(C(=O)N2CCOCC2)sc2cc(-c3cnc(NCCO)nc3)ccc12 [Compound A10] | 1610
17 | Cn1cc2cc(-c3cc(C4CC4)c4cc(C(=O)N5CCCCC5)sc4n3)cnc2n1 [Compound B23, (4-cyclopropyl-6-(2-methyl-2H-pyrazolo[3,4-b]pyridin-5-yl)thieno[2,3-b]pyridin-2-yl)(1-piperidinyl)methanone] | 0.215
18 | COCCN(C)C(=O)c1cc2c(C3CC3)cc(-c3cnc4nn(C)cc4c3)nc2s1 [Compound B12, 4-cyclopropyl-N-(2-methoxyethyl)-N-methyl-6-(2-methyl-2H-pyrazolo[3,4-b]pyridin-5-yl)thieno[2,3-b]pyridine-2-carboxamide] | 0.704
19 | C[C@@H]1COCCN1C(=O)c1cc2ccc(-c3ccc4ncccc4c3)nc2s1 [Compound B61R, ((3R)-3-methyl-4-morpholinyl)(6-(6-quinolinyl)thieno[2,3-b]pyridin-2-yl)methanone] | 189
20 | Cn1cc2cc(-c3cc(C4CC4)c4cc(C(=O)N5CCC(C(F)(F)F)CC5)sc4n3)cnc2n1 [Compound B20, (4-cyclopropyl-6-(2-methyl-2H-pyrazolo[3,4-b]pyridin-5-yl)thieno[2,3-b]pyridin-2-yl)(4-(trifluoromethyl)-1-piperidinyl)methanone] | 1.11
21 | Cn1cc2cc(-c3ccc4sc(C(=O)N5CCOCC5)c(N)c4n3)cnc2n1 [Compound C46, (3-amino-5-(2-methyl-2H-pyrazolo[3,4-b]pyridin-5-yl)thieno[3,2-b]pyridin-2-yl)(4-morpholinyl)methanone] | 20.1
22 | Cc1c(C(=O)N2CCOC(C)(C)C2)sc2cc(-c3cnc4nn(C)cc4c3)ccc12 [Compound A6, (2,2-dimethyl-4-morpholinyl)(3-methyl-6-(2-methyl-2H-pyrazolo[3,4-b]pyridin-5-yl)-1-benzothiophen-2-yl)methanone] | 185
23 | Cc1c(C(=O)N2CCC(F)(F)CC2)sc2cc(-c3cnc4nn(C)cc4c3)ccc12 [Compound A3, (4,4-difluoro-1-piperidinyl)(3-methyl-6-(2-methyl-2H-pyrazolo[3,4-b]pyridin-5-yl)-1-benzothiophen-2-yl)methanone] | 11.7
24 | O=C(c1cc2ccc(-c3ccc4ncccc4c3)nc2s1)N1CCOCC1 [Compound B49, 4-morpholinyl(6-(6-quinolinyl)thieno[2,3-b]pyridin-2-yl)methanone] | 77.8
25 | O=C(c1cc2ccc(-c3ccc(=O)[nH]c3)nc2s1)N1CCOCC1 [Compound B41, 5-(2-(4-morpholinylcarbonyl)thieno[2,3-b]pyridin-6-yl)-2(1H)-pyridinone] | 641
26 | CN(C(=O)c1cc2c(C3CC3)cc(-c3cnc4nn(C)cc4c3)nc2s1)C1CCC1 [Compound B15, N-cyclobutyl-4-cyclopropyl-N-methyl-6-(2-methyl-2H-pyrazolo[3,4-b]pyridin-5-yl)thieno[2,3-b]pyridine-2-carboxamide] | 0.475
27 | O=C(c1nc2ccc(N3CCOCC3)nc2s1)N1CCOCC1 [Compound C50, 4-morpholinyl(5-(4-morpholinyl)[1,3]thiazolo[5,4-b]pyridin-2-yl)methanone] | 14400
